Results taken from patent publication US5008245A (University of Kentucky Research Foundation, priority 1988, dated 1991).
Like-named read-outs stand apart in the source and are kept apart here.

Tests used:
Format in all cases: biochemical
[1] = molecular target: PPE (porcine pancreatic elastase) (Sus scrofa, UniProt P00772); assay: Inhibition of PPE by peptidyl carbamates; details: Ex. 67 table, N.I. = no inhibition at I/E = 100
Description: (§1) These studies are conducted to show the activities of some of the compounds of this invention as inhibitors of various forms of the enzyme elastase.
^c N.I. refers to no inhibition at I/E = 100.

[2] = molecular target: T1, HLE (human leukocyte elastase) (Homo sapiens, UniProt P08246); assay: Inhibition of HLE by desmosine-like peptidyl carbamates, steady state kinetics (Dixon plot, Lineweaver-Burk slope replot)
T1 sequence (P08246 30-267): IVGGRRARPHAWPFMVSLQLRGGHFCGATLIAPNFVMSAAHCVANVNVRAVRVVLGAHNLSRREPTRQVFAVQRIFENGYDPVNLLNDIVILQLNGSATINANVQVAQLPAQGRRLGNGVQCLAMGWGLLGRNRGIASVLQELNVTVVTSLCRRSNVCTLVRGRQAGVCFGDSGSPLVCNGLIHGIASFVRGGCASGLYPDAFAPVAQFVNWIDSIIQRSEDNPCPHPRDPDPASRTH
Description: ^c Lines contained linear regression analysis correlations of >0.950.
^d Ki values determined from LineweaverBurk slope replots. Slope
were obtained from lines with linear regression analysis correlations of
^a Ki value was determined by steady state kinetics.
as §1

enzyme elastase = assay: Inhibition of the enzyme elastase, Ki / inhibitor dissociation constants; details: p-nitrophenyl at P1 replaced by N-phenylthiotetrazole
[3] = Table 1, variations in P4, Dixon plot, linear regression correlations >0.950, read-out: Ki value (μM) Dixon
[4] = Table 1, variations in P4, Lineweaver-Burk slope replots, correlations >0.990, read-out: Ki value (μM) Replot
[5] = Table 2, variations in P3, Dixon plot, linear regression correlations >0.950, read-out: Ki values (μM) Dixon
[6] = Table 2, variations in P3, Lineweaver-Burk slope replots, correlations >0.990, read-out: Ki values (μM) Replot
[7] = Ki values (μM) Dixon, Table 2, variations in P3, Dixon plot, linear regression correlations >0.950
[8] = Ki values (μM) Replot, Table 2, variations in P3, Lineweaver-Burk slope replots, correlations >0.990

Sequence of PPE (porcine pancreatic elastase) (P00772 27-266): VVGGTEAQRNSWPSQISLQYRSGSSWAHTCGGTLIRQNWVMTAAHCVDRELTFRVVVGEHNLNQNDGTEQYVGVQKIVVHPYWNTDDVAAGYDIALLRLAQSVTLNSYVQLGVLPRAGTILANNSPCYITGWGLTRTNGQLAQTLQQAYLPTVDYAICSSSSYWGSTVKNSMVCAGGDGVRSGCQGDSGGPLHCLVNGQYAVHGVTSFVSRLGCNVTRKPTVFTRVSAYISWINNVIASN

Ki (μM) PPE ([1]; variations at P4) | Ki [2, 3] [µM] | Ki [2, 4] [µM] | Ki [2, 5] [µM] | Ki [2, 6] [µM] | Molecule | further results
 |  |  | 34 | 38.5 | COC(=O)CCC(=O)N[C@@H](C)C(=O)N[C@@H](CCCCNC(=O)c1ccccc1)C(=O)N1CCC[C@H]1C(=O)CN(C(=O)Oc1ccc([N+](=O)[O-])cc1)C(C)C [Compound 49b] | Ki (μM) PPE ([1]; variations at P3): N.I.
 |  |  | 5.33 | 2.14 | COC(=O)CCC(=O)NC(C)C(=O)NC(CCCNC(=O)c1ccccc1)C(=O)N1CCCC1C(=O)CN(C(=O)Oc1ccc([N+](=O)[O-])cc1)C(C)C (stereo not shown) [Compound 51a] | Ki ([1]; variations at P3): 14.3 µM
 |  |  | 0.75 | 1.05 | p-Nitrophenyl N-[Methoxysuccinylalanyl-Nδ -carbobenzoxy)ornithylprolylmethyl]-N-isopropylcarbamate [Compound 50a] | Ki ([1]; variations at P3): 8.65 µM
 |  |  | 1.6 | 0.31 | COC(=O)CCC(=O)N[C@@H](C)C(=O)N[C@@H](CCCCNC(=O)c1ccccc1)C(=O)N1CCC[C@H]1C(=O)CN(C(=O)Oc1ccc([N+](=O)[O-])cc1)C(C)C [Compound 49a] | Ki ([1]; variations at P3): 3.8 µM
 |  |  | 22.2 | 19.2 | COC(=O)CCC(=O)NC(C)C(=O)NC(CCCNC(=O)OCc1ccccc1)C(=O)N1CCCC1C(=O)CN(C(=O)Oc1ccc([N+](=O)[O-])cc1)C(C)C (stereo not shown) [Compound 50b, p-Nitrophenyl N-[Methoxysuccinylalanyl-(Nδ -carbobenzoxy)ornithylprolymethyl]-N-isopropylcarbamate] | Ki (μM) PPE ([1]; variations at P3): N.I.

More lines, now with the values behind:

Molecule | Ki (μM) PPE ([1]; variations at P4) | Ki [2, 3] [µM] | Ki [2, 4] [µM] | Ki [2, 5] [µM] | Ki [2, 6] [µM] | further results
COC(=O)CCC(=O)NC(CCCNC(=O)OCc1ccccc1)C(=O)NC(C)C(=O)N1CCCC1C(=O)CN(C(=O)Oc1ccc([N+](=O)[O-])cc1)C(C)C (single isomer, unassigned) [Compound 46a, p-Nitrophenyl N-[Methoxysuccinyl-(Nδ -carbobenzoxy)ornithylalanylprolylmethyl]-N-isopropylcarbamate] | N.I. | 0.43 | 0.36 |  |  | Ki ([2]; Ex. 67 table, variations at P4, read-out: Ki (μM) HLE): 0.65 µM
p-Nitrophenyl N-[Methoxysuccinyl-(Nδ -carbobenzoxy)lysylprolylmethyl]-N-isopropylcarbamate [Compound 48a] |  |  |  | 1.1 | 0.22 | Ki ([1]; variations at P3): 3.4 µM
COC(=O)CCC(=O)NC(CCCCNC(=O)OCc1ccccc1)C(=O)NC(C)C(=O)N1CCCC1C(=O)CN(C(=O)Oc1ccc([N+](=O)[O-])cc1)C(C)C (single isomer, unassigned) [Compound 44a, p-Nitrophenyl N-[Methoxysuccinyl-(Nε -carbobenzoxy)lysylalanylprolylmethyl]-N-isopropylcarbamate] | N.I. | 0.56 | 0.47 |  |  | 
COC(=O)CCC(=O)NC(CCCCNC(=O)c1ccccc1)C(=O)NC(C)C(=O)N1CCCC1C(=O)CN(C(=O)Oc1ccc([N+](=O)[O-])cc1)C(C)C (single isomer, unassigned) [Compound 45a, p-Nitrophenyl N-[Methoxysuccinyl-(Nε -benzoyl)lysylalanylprolylmethyl]-N-isopropylcarbamate] | N.I. | 0.73 | 0.38 |  |  | 
p-Nitrophenyl N-[Methoxysuccinyl-(Nδ -benzoyl)ornithylalanylprolylmethyl]-N-isopropylcarbamate [Compound 47b] | N.I. | 10 | 17.7 |  |  | 
COC(=O)CCC(=O)NC(CCCNC(=O)OCc1ccccc1)C(=O)NC(C)C(=O)N1CCCC1C(=O)CN(C(=O)Sc1nnnn1-c1ccccc1)C(C)C (stereo not drawn) [PC6, S-(1-Phenyl-5-tetrazoyl)-N-[methoxysuccinyl-Nδ-carbobenzoxyl) ornithyl alanyl prolyl methyl]-N-isopropyl thiocarbamate] |  |  |  |  |  | Ki (enzyme elastase): 0.003 µM
COC(=O)CCC(=O)NC(C)C(=O)NC(CCCCNC(=O)OCc1ccccc1)C(=O)N1CCCC1C(=O)CN(C(=O)Sc1nnnn1-c1ccccc1)C(C)C (stereo not drawn) [PC5, S-(1-Phenyl-5-tetrazoyl)-N-[methoxysuccinyl-alanyl-(N6-carbonbenzoxyl)lysylprolylmethyl]-N-isopropyl thiocarbamate] |  |  |  |  |  | Ki (enzyme elastase): 0.02 µM
COC(=O)CCC(=O)NC(CCCNC(=O)OCc1ccccc1)C(=O)NC(C)C(=O)N1CCCC1C(=O)CN(C(=O)Oc1ccc([N+](=O)[O-])cc1)C(C)C (single isomer, unassigned) [Compound 46b, p-Nitrophenyl N-[Methoxysuccinyl-(Nδ -carbobenzoxy)ornithylalanylprolylmethyl]-N-isopropylcarbamate] | N.I. | 8.8 | 7.95 |  |  | 
COC(=O)CCC(=O)N[C@@H](C)C(=O)N[C@@H](CCCNC(=O)c1ccccc1)C(=O)N1CCC[C@@H]1C(=O)CN(C(=O)Oc1ccc([N+](=O)[O-])cc1)C(C)C [Compound 51b] |  |  |  |  |  | Ki (μM) PPE ([1]; variations at P3): N.I.; Ki [2, 7]: 104 µM; Ki [2, 8]: 100 µM
p-Nitrophenyl N-[Methoxysuccinyl-(Nδ -benzoyl)ornithylalanylprolylmethyl]-N-isopropylcarbamate [Compound 47a] | N.I. | 0.65 | 0.19 |  |  | 
COC(=O)CCC(=O)N[C@@H](C)C(=O)N[C@@H](CCCCNC(=O)OCc1ccccc1)C(=O)N1CCC[C@@H]1C(=O)CN(C(=O)Oc1ccc([N+](=O)[O-])cc1)C(C)C [Compound 48b] |  |  |  |  |  | Ki (μM) PPE ([1]; variations at P3): N.I.; Ki ([2]; Ki (μM) HLE, Ex. 67 table, variations at P3): 11.3 µM; Ki [2, 7]: 20.4 µM; Ki [2, 8]: 11.3 µM
COC(=O)CCC(=O)NC(CCCCNC(=O)c1ccccc1)C(=O)NC(C)C(=O)N1CCCC1C(=O)CN(C(=O)Oc1ccc([N+](=O)[O-])cc1)C(C)C (single isomer, unassigned) [Compound 45b, p-Nitrophenyl N-[Methoxysuccinyl-(Nε -benzoyl)lysylalanylprolylmethyl]-N-isopropylcarbamate] | N.I. | 3.7 | 3.13 |  |  | 
COC(=O)CCC(=O)NC(CCCCNC(=O)OCc1ccccc1)C(=O)NC(C)C(=O)N1CCCC1C(=O)CN(C(=O)Oc1ccc([N+](=O)[O-])cc1)C(C)C (single isomer, unassigned) [Compound 44b, p-Nitrophenyl N-[Methoxysuccinyl-(Nε -carbobenzoxy)lysylalanylprolylmethyl]-N-isopropylcarbamate] | N.I. | 7.3 | 7.63 |  |  | 
